# System: 454973-116-R2-J3-PDC complex spheroid viability
# Test: Anticancer human tumor 454973-116-R2-J3-PDC patient-derived pancreatic carcinoma cell line growth inhibition [POLQ]
# Conditions: for IC50: curve of first compound; for viability, T/C: stronger effect = lower value
# Outline: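 Three-cell-type spheroids modelling solid tumor plus stroma served as the readout system; POL inhibitors were tested individually and in combination, concentration ranges set by clinical Cmax where known.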
# [1] = second compound 0.0316 µM, first compound 0.0316 µM
# [2] = second compound 0.0316 µM, first compound 0.1 µM
# [3] = second compound 0.1 µM, first compound 0.0316 µM
# [4] = second compound 0.1 µM, first compound 0.1 µM
# [5] = second compound 0.316 µM, first compound 0.0316 µM
# [6] = second compound 0.316 µM, first compound 0.1 µM
# [7] = second compound 1 µM, first compound 0.0316 µM
# [8] = second compound 1 µM, first compound 0.1 µM
# [9] = second compound 3.16 µM, first compound 0.0316 µM
# [10] = second compound 3.16 µM, first compound 0.1 µM
# [11] = second compound 10 µM, first compound 0.0316 µM
# [12] = second compound 10 µM, first compound 0.1 µM
# [13] = second compound 0.0316 µM, first compound 0.000316 µM
# [14] = second compound 0.0316 µM, first compound 0.001 µM
# [15] = second compound 0.0316 µM, first compound 0.00316 µM
# [16] = second compound 0.0316 µM, first compound 0.01 µM
# [17] = second compound 0.1 µM, first compound 0.000316 µM
# [18] = second compound 0.1 µM, first compound 0.001 µM
# [19] = second compound 0.1 µM, first compound 0.00316 µM
# [20] = second compound 0.1 µM, first compound 0.01 µM
# [21] = second compound 0.316 µM, first compound 0.000316 µM
# [22] = second compound 0.316 µM, first compound 0.001 µM
# [23] = second compound 0.316 µM, first compound 0.00316 µM
# [24] = second compound 0.316 µM, first compound 0.01 µM
# [25] = second compound 1 µM, first compound 0.000316 µM
# [26] = second compound 1 µM, first compound 0.001 µM
# [27] = second compound 1 µM, first compound 0.00316 µM
# [28] = second compound 1 µM, first compound 0.01 µM
# [29] = second compound 3.16 µM, first compound 0.000316 µM
# [30] = second compound 3.16 µM, first compound 0.001 µM
# [31] = second compound 3.16 µM, first compound 0.00316 µM
# [32] = second compound 3.16 µM, first compound 0.01 µM
# [33] = second compound 10 µM, first compound 0.000316 µM
# [34] = second compound 10 µM, first compound 0.001 µM
# [35] = second compound 10 µM, first compound 0.00316 µM
# [36] = second compound 10 µM, first compound 0.01 µM
# 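Note: spheroids exposed to drugs for seven days before measurement.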
# 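Throughout, for viability, T/C: percent viability relative to DMSO vehicle control wells taken as 100%.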
structure (smiles),measurement,setting,value
O=c1[nH]cc(F)c(=O)[nH]1 + COC1C(OC(N)=O)C(O)C(Oc2ccc3c(O)c(NC(=O)c4ccc(O)c(CC=C(C)C)c4)c(=O)oc3c2C)OC1(C)C,IC50,second compound 0.0316 µM,4110 nM
same,IC50,second compound 0.1 µM,4800 nM
same,IC50,second compound 0.316 µM,4270 nM
same,IC50,second compound 1 µM,4010 nM
same,IC50,second compound 3.16 µM,5630 nM
same,IC50,second compound 10 µM,3270 nM
same,"viability, T/C",[1],104%
same,"viability, T/C",[2],104%
same,"viability, T/C","second compound 0.0316 µM, first compound 0.316 µM",110%
same,"viability, T/C","second compound 0.0316 µM, first compound 1 µM",100%
same,"viability, T/C","second compound 0.0316 µM, first compound 3.16 µM",55.6%
same,"viability, T/C","second compound 0.0316 µM, first compound 10 µM",31.2%
same,"viability, T/C",[3],105%
same,"viability, T/C",[4],108%
same,"viability, T/C","second compound 0.1 µM, first compound 0.316 µM",106%
same,"viability, T/C","second compound 0.1 µM, first compound 1 µM",98%
same,"viability, T/C","second compound 0.1 µM, first compound 3.16 µM",60.6%
same,"viability, T/C","second compound 0.1 µM, first compound 10 µM",31.4%
same,"viability, T/C",[5],112%
same,"viability, T/C",[6],108%
same,"viability, T/C","second compound 0.316 µM, first compound 0.316 µM",108%
same,"viability, T/C","second compound 0.316 µM, first compound 1 µM",96.9%
same,"viability, T/C","second compound 0.316 µM, first compound 3.16 µM",55.2%
same,"viability, T/C","second compound 0.316 µM, first compound 10 µM",34.9%
same,"viability, T/C",[7],112%
same,"viability, T/C",[8],111%
same,"viability, T/C","second compound 1 µM, first compound 0.316 µM",110%
same,"viability, T/C","second compound 1 µM, first compound 1 µM",96.4%
same,"viability, T/C","second compound 1 µM, first compound 3.16 µM",53.9%
same,"viability, T/C","second compound 1 µM, first compound 10 µM",35.1%
same,"viability, T/C",[9],112%
same,"viability, T/C",[10],118%
same,"viability, T/C","second compound 3.16 µM, first compound 0.316 µM",113%
same,"viability, T/C","second compound 3.16 µM, first compound 1 µM",97.6%
same,"viability, T/C","second compound 3.16 µM, first compound 3.16 µM",63.4%
same,"viability, T/C","second compound 3.16 µM, first compound 10 µM",36.9%
same,"viability, T/C",[11],111%
same,"viability, T/C",[12],108%
same,"viability, T/C","second compound 10 µM, first compound 0.316 µM",109%
same,"viability, T/C","second compound 10 µM, first compound 1 µM",100%
same,"viability, T/C","second compound 10 µM, first compound 3.16 µM",50.6%
same,"viability, T/C","second compound 10 µM, first compound 10 µM",31.3%
CC[C@@]1(O)C(=O)OCc2c1cc1n(c2=O)Cc2cc3c(CN(C)C)c(O)ccc3nc2-1 + COC1C(OC(N)=O)C(O)C(Oc2ccc3c(O)c(NC(=O)c4ccc(O)c(CC=C(C)C)c4)c(=O)oc3c2C)OC1(C)C,IC50,second compound 0.0316 µM,20 nM
same,IC50,second compound 0.1 µM,17.8 nM
same,IC50,second compound 0.316 µM,18.4 nM
same,IC50,second compound 1 µM,18.9 nM
same,IC50,second compound 3.16 µM,18.3 nM
same,IC50,second compound 10 µM,17.5 nM
same,"viability, T/C",[13],113%
same,"viability, T/C",[14],106%
same,"viability, T/C",[15],105%
same,"viability, T/C",[16],86.8%
same,"viability, T/C",[1],25.5%
same,"viability, T/C",[2],14.9%
same,"viability, T/C",[17],106%
same,"viability, T/C",[18],106%
same,"viability, T/C",[19],103%
same,"viability, T/C",[20],82.6%
same,"viability, T/C",[3],17.1%
same,"viability, T/C",[4],16.3%
same,"viability, T/C",[21],109%
same,"viability, T/C",[22],100%
same,"viability, T/C",[23],108%
same,"viability, T/C",[24],88.9%
same,"viability, T/C",[5],15.8%
same,"viability, T/C",[6],13.8%
same,"viability, T/C",[25],113%
same,"viability, T/C",[26],101%
same,"viability, T/C",[27],108%
same,"viability, T/C",[28],91.1%
same,"viability, T/C",[7],15.8%
same,"viability, T/C",[8],18.1%
same,"viability, T/C",[29],110%
same,"viability, T/C",[30],113%
same,"viability, T/C",[31],107%
same,"viability, T/C",[32],79.6%
same,"viability, T/C",[9],22.8%
same,"viability, T/C",[10],19%
same,"viability, T/C",[33],109%
same,"viability, T/C",[34],104%
same,"viability, T/C",[35],99.9%
same,"viability, T/C",[36],76.5%
same,"viability, T/C",[11],21.4%
same,"viability, T/C",[12],20.3%
Cn1ncnc1[C@H]1c2n[nH]c(=O)c3cc(F)cc(c23)N[C@@H]1c1ccc(F)cc1 + Cc1cccc(N(C)C(=O)C2C(O)CCN2c2nc(C)cc(C(F)(F)F)c2C#N)c1,IC50,second compound 0.0316 µM,> 100 nM
same,IC50,second compound 0.1 µM,> 100 nM
same,IC50,second compound 0.316 µM,> 100 nM
same,IC50,second compound 1 µM,> 100 nM
same,IC50,second compound 3.16 µM,> 100 nM
same,IC50,second compound 10 µM,> 100 nM
same,"viability, T/C",[13],109%
same,"viability, T/C",[14],97%
same,"viability, T/C",[15],91.8%
same,"viability, T/C",[16],96.1%
same,"viability, T/C",[1],108%
same,"viability, T/C",[2],89.6%
same,"viability, T/C",[17],106%
same,"viability, T/C",[18],100%
same,"viability, T/C",[19],95.6%
same,"viability, T/C",[20],97.2%
same,"viability, T/C",[3],94.3%
same,"viability, T/C",[4],90.1%
same,"viability, T/C",[21],102%
same,"viability, T/C",[22],104%
same,"viability, T/C",[23],98.5%
same,"viability, T/C",[24],97.6%
same,"viability, T/C",[5],98.5%
same,"viability, T/C",[6],85.2%
same,"viability, T/C",[25],110%
same,"viability, T/C",[26],102%
same,"viability, T/C",[27],103%
same,"viability, T/C",[28],105%
same,"viability, T/C",[7],91.7%
same,"viability, T/C",[8],91.4%
same,"viability, T/C",[29],105%
same,"viability, T/C",[30],119%
same,"viability, T/C",[31],103%
same,"viability, T/C",[32],108%
same,"viability, T/C",[9],97.2%
same,"viability, T/C",[10],85.6%
same,"viability, T/C",[33],107%
same,"viability, T/C",[34],96%
same,"viability, T/C",[35],97.5%
same,"viability, T/C",[36],91.8%
same,"viability, T/C",[11],101%
same,"viability, T/C",[12],85%

# Source: PubChem BioAssay AID1963846 (Molecular Pharmacology Branch, DTP, NCI, 2024)
